Literature values as cited in US20210330725A1, “GARCINIA MANGOSTANA EXTRACT FOR PROMOTING HAIR GROWTH” (PIERRE FABRE DERMO-COSMETIQUE, priority 2018, published 2021).

System: hair follicles
Conditions: mice

For `C[C@@H]1CCN(C(=O)CC#N)C[C@@H]1N(C)c1ncnc2[nH]ccc12` [Tofacitinib, tofacitinib], the “effect on hair cycle of topical treatment in telogen phase” value is given as “rapid re-entry at the beginning of anagen phase”.
